In brackets after ≈: the same amount, converted by molar mass. Read-outs that look alike come from different tables or passages of the source. Where a SMILES comes first, the peptide text is derived from it. Where no end group is shown, it is not given here. [ ]: non-standard residue; d: D form. The star is where a group is joined. Orn(α-tetramethylguanidino) = CN(C)C(=N[C@@H](CCCN)C(=O)*)N(C)C; Orn = NCCC[C@H](N)C(=O)O
Experiments:
[1] = in vitro; assay type: in vitro ADME, mouse; conditions: 37° C.
Description: Serum stability studies were carried out in duplicate as described by Hoffmann et al.. Briefly, 28 μL of an aqueous peptide or peptidomimetics solution (0.5 mg/mL) was added to 0.2 mL freshly pooled 25% mouse serum (Sigma-Aldrich GmbH, Taufkirchen, Germany) in water. The mixtures were incubated at 37° C. under gentle stirring. The proteins were precipitated with 40 μL of 15% aqueous TCA after incubation times of 0, 0.5, 1, 2, 4 and 6 h at 0° C. for 20 min before centrifuged (13500×G) at 4° C. for 5 min. The supernatants of all samples (240 μL) were neutralized with 1 mol/L aqueous NaOH and immediately stored at −20° C. The supernatants were analyzed by RP-HPLC using a linear acetonitrile gradient as described above with 0.1% TFA as ion pair reagent. Collected fractions of the main peaks were further analyzed by tandem mass spectrometry (MALDI-TOF/TOF-MS, 4700 Proteomics Analyzer, Applied Biosystems GmbH, Weiterstadt, Germany) in positive ion reflector mode using α-cyanohydroxycinnamic acid (50% CH3CN in 0.1% aqueous TFA) as matrix to identify the degradation products of the peptides and peptidomimetics, i.e., metabolites, at the different time points. Serum control samples consisted of 200 μL of pooled 25% mouse serum in water, which were also precipitated with 40 μL 15% aqueous TCA, as described before. Peptide reference samples consisted of 28 μL of the peptide stock solution diluted in 0.2 mL water and 40 μL of 15% aqueous trichloroacetic acid (TCA).

[2] = tested on: E. coli 45849; assay: Growth inhibition assay (MIC); assay type: cell-based, Escherichia coli; conditions: multidrug resistant strain; 1% TSB, 37° C., 20 hrs
Description: (§1) The minimal inhibition concentrations (MIC) of the apidaecin-derived peptides and peptide-derivatives were determined by a growth inhibition assay using a serial peptide dilution in sterilized round-bottom 96-well plates (polystyrene, U-bottom, Greiner Bio-One GmbH) with a final volume of 100 μL per well. The bacteria, e.g., E. coli BL21 A1, were grown in nutrient broth (NB, Carl Roth GmbH+Co. KG, Karlsruhe, Germany) at 37° C. over night. To each well of the 96-well plate, 50 μL of the overnight culture adjusted to 5×10^6 CFU/mL in 1% TSB were added. Lyophilized peptides and peptidomimetics were dissolved in 1% TSB (tryptic soy broth) or water to give a final concentration of 250 μg/mL. Fifty μL of the peptide or peptidomimetics solution were added to the first well of a row on the plate and mixed. Fifty μL of the first well containing the peptide solution were transferred to the second well, mixed and again 50 μL transferred to the next well and so on. Thereby, a two-fold dilution series was obtained starting at 250 μg/mL in the first well down to 120 ng/mL in the 12th well of a row giving a final peptide or peptidomimetics concentration from 125 μg/mL (well 1) to 60 ng/mL (well 12). Plates were incubated at 37° C. for 20 hrs. The absorbance was measured at 595 nm using a TECAN micro plate spectrophotometer (Tecan, Germany). All peptides and peptidomimetics were measured in triplicates. Sterilized water was used as a negative control.
(§2) The following multidrug resistant bacteria strains were tested: • Eschericha coli 45849 and D31, • Klebsiella pneumoniae 123132 and K6, • Salmonella typhi S5 and Salmonella enterica subsp. enterica serovar Typhimurium (ATCC 700408), • Rhizobium radiobacter (ATCC 15955 deposited as Agrobacterium tumefaciens).

[3] = tested on: S. typhi S5; assay type: cell-based, Salmonella typhi; conditions: S5, 20 h
Description: as §1, §2

[4] = tested on: E. coli D31; assay type: cell-based, Escherichia coli; conditions: D31, 20 h
In short: (§3)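 Broth microdilution with two-fold peptide series, final 125 μg/mL down to 60 ng/mL, against overnight cultures adjusted to 5×10^6 CFU/mL in 1% TSB. Incubated 20 h at 37° C. Growth read by absorbance at 595 nm, triplicates.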

[5] = tested on: K. Pneumonia 123132; assay: Growth inhibition assay (MIC); assay type: cell-based, Klebsiella pneumoniae; conditions: multidrug resistant strain; 1% TSB, 37° C., 20 hrs
In short: as §3

[6] = tested on: K. Pneumonia K6, ATCC 700603; assay: Growth inhibition assay (MIC); assay type: cell-based, Klebsiella pneumoniae; conditions: multidrug resistant strain; 1% TSB, 37° C., 20 hrs
In short: as §3

[7] = tested on: S. enterica subsp. Enterica serovar. typhi G10215 ATCC 700408; assay type: cell-based, Salmonella enterica; conditions: ATCC 700408, 20 h
In short: as §3

[8] = tested on: M. luteus ATCC 10240; assay type: cell-based, Micrococcus luteus; conditions: ATCC 10240, 20 h
In short: (§4)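 Bacteria grown overnight in NB at 37° C. were adjusted to 5×10^6 CFU/mL in 1% TSB and mixed 1:1 with a two-fold peptide series (final 125 μg/mL–60 ng/mL). After 20 hrs at 37° C., A595 was read; triplicates.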

[9] = tested on: E. coli 1103; assay type: cell-based, Escherichia coli; conditions: 1103, 20 h
Description: as §1
(§5) The bacteria strains were tested: • Eschericha coli 1103, 10233, BL 21 AI, DC 2, • Klebsiella pneumoniae 681, • Micrococcus luteus ATCC 10240, • Mycobacterium vaccae • Bactillus subtillis 347.

[10] = tested on: K. pneumonia 681; assay type: cell-based, Klebsiella pneumoniae; conditions: 20 h
Description: as §1, §5

[11] = tested on: B. subtilis 347; assay type: cell-based, Bactillus subtillis; conditions: 347, 20 h
Description: as §1, §5

[12] = tested on: R. radiobatter ATCC 15955; assay: Growth inhibition assay (MIC); assay type: cell-based, Rhizobium radiobacter; conditions: multidrug resistant strain; 1% TSB, 37° C., 20 hrs
Description: as §1, §2

[13] = tested on: E. coli BL 21 AI; assay: Growth inhibition assay (MIC); assay type: cell-based, Escherichia coli; conditions: 1% TSB, 37° C., 20 hrs
In short: as §4

[14] = 25% aqueous mouse serum, read-out: Half-life time

Row | Compound | half-life at 0.061 mg/mL [1, 14] [h] | MIC E. coli 45849 [2] [µg/mL] | MIC S. typhi S5 [3] [µg/mL] | MIC E. coli D31 [4] [µg/mL] | MIC K. Pneumonia 123132 [5] [µg/mL] | MIC K. Pneumonia K6, ATCC 700603 [6] [µg/mL] | MIC S. enterica subsp. Enterica serovar. typhi G10215 ATCC 700408 [7] [µg/mL] | other results
1 | CC[C@H](C)[C@H](NC(=O)[C@@H]1CCCN1C(=O)[C@H](CCCNC(=N)N)NC(=O)[C@@H]1CCCN1C(=O)[C@H](Cc1c[nH]cn1)NC(=O)[C@@H]1CCCN1C(=O)[C@@H]1CCCN1C(=O)[C@H](CCCNC(=N)N)NC(=O)[C@@H]1CCCN1C(=O)[C@H](CCCNC(=N)N)NC(=O)[C@@H]1CCCN1C(=O)[C@@H](NC(=O)[C@H](Cc1ccc(O)cc1)NC(=O)[C@@H](NC(=O)[C@@H]1CCCN1C(=O)[C@H](CCCNC(=N)N)NC(=O)[C@H](CC(N)=O)NC(=O)[C@H](CC(N)=O)NC(=O)[C@H](CCCN)NC(C)=O)C(C)C)[C@@H](C)CC)C(=O)N[C@@H](CCCNC(=N)N)C(=O)N[C@H](C(=O)O)C(C)C [compound 24] (Ac-[Orn]NNRPVYIPRPRPPHPRPIRV-OH) | 4 |  |  |  |  |  |  | 
2 | CC[C@H](C)[C@H](NC(=O)[C@H](Cc1ccc(O)cc1)NC(=O)[C@@H](NC(=O)[C@@H]1CCCN1C(=O)[C@H](CCCNC(=N)N)NC(=O)[C@H](CC(N)=O)NC(=O)[C@H](CC(N)=O)NC(=O)[C@@H](N)CCCN)C(C)C)C(=O)N1CCC[C@H]1C(=O)N[C@@H](CCCNC(=N)N)C(=O)N1CCC[C@H]1C(=O)N[C@@H](CCCNC(=N)N)C(=O)N1CCC[C@H]1C(=O)N1CCC[C@H]1C(=O)N[C@@H](Cc1c[nH]cn1)C(=O)N1CCC[C@H]1C(=O)N[C@@H](CCCN)C(=O)N[C@@H](CC(C)C)C(N)=O [compound 81] (H-[Orn]NNRPVYIPRPRPPHP[Orn]L-NH2) | 2 | 8 (≈ 3.72 µM) | 4 (≈ 1.86 µM) | 8 (≈ 3.72 µM) | 8 (≈ 3.72 µM) | 16 (≈ 7.44 µM) | 4 (≈ 1.86 µM) | 
3 | CC[C@H](C)[C@H](NC(=O)[C@H](Cc1ccc(O)cc1)NC(=O)[C@@H](NC(=O)[C@@H]1CCCN1C(=O)[C@H](CCCNC(=N)N)NC(=O)[C@H](CC(N)=O)NC(=O)[C@H](CC(N)=O)NC(=O)[C@H](CCCN)NC(C)=O)C(C)C)C(=O)N1CCC[C@H]1C(=O)N[C@@H](CCCNC(=N)N)C(=O)N1CCC[C@H]1C(=O)N[C@@H](CCCNC(=N)N)C(=O)N1CCC[C@H]1C(=O)N1CCC[C@H]1C(=O)N[C@@H](Cc1c[nH]cn1)C(=O)N1CCC[C@H]1C(=O)N[C@@H](CCCN)C(=O)N[C@@H](CC(C)C)C(N)=O [compound 82] (Ac-[Orn]NNRPVYIPRPRPPHP[Orn]L-NH2) | > 6 | 16 (≈ 7.3 µM) | 8 (≈ 3.65 µM) | 32 (≈ 14.6 µM) | 8 (≈ 3.65 µM) | 32 (≈ 14.6 µM) | 8 (≈ 3.65 µM) | half-life ([1]; 25% aqueous serum): The same stability
4 | CC[C@H](C)[C@H](NC(=O)[C@H](Cc1ccc(O)cc1)NC(=O)[C@@H](NC(=O)[C@@H]1CCCN1C(=O)[C@H](CCCNC(=N)N)NC(=O)[C@H](CC(N)=O)NC(=O)[C@H](CC(N)=O)NC(=O)[C@H](CCCN)N=C(N(C)C)N(C)C)C(C)C)C(=O)N1CCC[C@H]1C(=O)N[C@@H](CCCNC(=N)N)C(=O)N1CCC[C@H]1C(=O)N[C@@H](CCCNC(=N)N)C(=O)N1CCC[C@H]1C(=O)N1CCC[C@H]1C(=O)N[C@@H](Cc1c[nH]cn1)C(=O)N1CCC[C@H]1C(=O)N[C@@H](CCCN)C(=O)N[C@@H](CC(C)C)C(N)=O [compound 134] ({Orn(α-tetramethylguanidino)}-NNRPVYIPRPRPPHP[Orn]L-NH2; N-terminus and C-terminus assumed) |  |  |  |  |  |  |  | half-life [1, 14]: > 6 h; MIC M. luteus ATCC 10240 [8]: 4 µg/mL (≈ 1.78 µM); MIC E. coli 1103 [9]: 32 µg/mL (≈ 14.2 µM); MIC K. pneumonia 681 [10]: 16 µg/mL (≈ 7.12 µM); MIC B. subtilis 347 [11]: >128 µg/mL
5 | Ac-KNNRPVYIPKPRPPHPRL-NH2 [compound 22] |  | 1 | 1 | 16 | 16 | 16 | 1 | MIC R. radiobatter ATCC 15955 [12]: <0.16 µg/mL; MIC E. coli BL 21 AI [13]: 1.95 µg/mL; MIC M. luteus ATCC 10240 [8]: 1.95 µg/mL
6 | GNNRPVYIPQPRPPHPRI [compound 1] | 2 |  |  |  |  |  |  | 
7 | GNNRPVYIPQPRPPHPRI-NH2 [compound 4] | 0.25 |  |  |  |  |  |  | 
8 | GNNRPVYIPQPRPPHPRL [compound 2] | 2 |  |  |  |  |  |  | 
9 | GNNRPVYIPQPRPPHPRL-NH2 [compound 6] | 0.25 | 0.5 | 0.125 | 1 | 16 | 16 | 0.125 | 
10 | GNNRPVYIPQPRPPHPRPIRV-NH2 [compound 110] | 6 |  |  |  |  |  |  | 
11 | GNNRPVYIPRPRPPHPRLV-NH2 [compound 25] |  | 1 | 2 | 64 | 16 | 16 | 1 | MIC R. radiobatter ATCC 15955 [12]: 0.65 µg/mL; MIC E. coli BL 21 AI [13]: 3.91 µg/mL; MIC M. luteus ATCC 10240 [8]: 1.95 µg/mL
12 | KNNRPVYIPKPRPPHPRL-NH2 [compound 21] |  | <0.25 | 1 | 8 | 4 | 8 | 0.25 to 0.5 | MIC R. radiobatter ATCC 15955 [12]: 0.65 µg/mL; MIC E. coli BL 21 AI [13]: 1.95 to 3.91 µg/mL
